Data: US8487006B2, “Method of enhancing TGF-β signalling” (Auxagen, Inc., priority 2008, dated 2013)

What was measured:
Type in all cases: cell-based
[1] = tested on: TGF-β1-stimulated Smad2 phosphorylation in Mv1Lu cells; experiment: TGF-β1-stimulated Smad2 phosphorylation, quantitative Western blot (P-Smad2/Smad2); details: for time dependence of the effect on TGF-β1-stimulated Smad2 phosphorylation: 20 LM MDC, 40 μM monensin, 20 μM TFP, 100 pM TGF-β1, several time periods; for concentration dependence of the effect on TGF-β1-stimulated Smad2 phosphorylation: several concentrations of the inhibitors, 100 pM TGF-β1 for 30 min
Procedure: (A-I, K) Cells were pretreated with 10 mg/ml β-CD (A, K), 20 LM MDC (B), 40 μM monensin (C), 20 μM TFP (D) and 0.45 M sucrose (K) or several concentrations (as indicated) of β-CD (E), TFP (F), monensin (G), chloroquine (H), dynasore (I), at 37° C. for 1 h. The cells were then stimulated with vehicle only or […] TGF-β1 (A to I) or several concentrations (as indicated) of TGF-β1 (K). After several time periods, as indicated, at 37° C., cell lysates were analysed by 7.5% SDS PAGE followed by Western blot analysis using antibodies to P-Smad2 and Smad2 and chemiluminescence development (a or top) and quantitation by densitometry (b or bottom). The relative level of P-Smad2 was expressed as arbitrary units (A.U.) (A, B, C, D, K) (b). The relative level of P-Smad2 in cells treated with TGF-β alone was taken as 100% of control (E to I, bottom). The data shown is representative of 3 independent experiments. (J) Cells were pretreated with 10 mg/ml β-CD (c,d) at 37° C. for 1 h. The cells were then stimulated with vehicle only (a) or with 100 pM TGF-β (b,d). After 30 min at 37° C. the cells were fixed and subjected to indirect immunofluorescent staining using antibody to P-Smad2. The magnification is 200×. The data shown is representative of 3 independent experiments.
If TGF-β-induced signaling occurs in endosomes, as reported previously^6-15, inhibitors of clathrin-dependent endocytosis would be expected to attenuate TGF-β-stimulated signaling such as Smad2 phosphorylation and nuclear colocalization^4,5. To test this, Mv1Lu cells were pretreated with vehicle only or with clathrin-dependent endocytosis inhibitors at 37° C. for 30 min and then treated with or without 100 pM TGF-β1. After several time periods, the relative levels of P-Smad2 in treated and stimulated cells were analyzed by quantitative Western blot analysis using antibodies to P-Smad2 and Smad2. […] After stimulation of cells with TGF-β1 for 60 min, β-CD, TFP, MDC and monensin enhanced TGF-β1-stimulated Smad2 phosphorylation by ˜1.5-2.5 fold (FIGS. 1Ab, 1Bb, 1Cb, and 1Db). To further characterize the effects of these inhibitors on Smad2 phosphorylation, Mv1Lu cells were pretreated with vehicle only or with several concentrations of the inhibitors at 37° C. for 30 min and then stimulated with 100 pM of TGF-β1. After 30 min at 37° C., cell lysates were subjected to Western blot analysis using antibodies to P-Smad2 and Smad2 followed by quantitation with densitometry. […] To determine the effect of β-CD on TGF-β1-stimulated nuclear localization of P-Smad2, Mv1Lu cells were pretreated with vehicle only or with β-CD (10 mg/ml). After 1 h at 37° C., cells were stimulated with TGF-β1 ([…]) for 30 min. The nuclear localization of P-Smad2 was then analyzed by indirect fluorescent staining.
To define the coated-pit stages that are important in TGF-β1-induced signaling, we treated Mv1Lu cells with hyperosmotic sucrose (0.45 M) or β-CD and examined TGF-β1-stimulated Smad2 phosphorylation in these cells. […] In cells stimulated with 100 pM TGF-β1, hyperosmotic sucrose attenuated Smad2 phosphorylation by ˜60% (FIG. 1Kb). On the other hand, β-CD enhanced TGF-β1-stimulated Smad2 phosphorylation at all concentrations of TGF-β1. It enhanced TGF-β1-stimulated Smad2 phosphorylation by 2-4 fold when compared with the control (treatment without β-CD) (FIGS. 1Ka and 1Kb).

[2] = tested on: TβR-I and SARA at the plasma membrane in Mv1Lu cells; experiment: Co-localization and accumulation of TβR-I and SARA, immunofluorescent microscopy; details: 20 μM TFP, 10 mg/ml β-CD, 40 μM dynasore, 200 μM chloroquine, with 100 pM TGF-β1, 30 min
Procedure: Cells were pretreated with vehicle only or 20 μM TFP, 10 mg/ml β-CD, 40 μM dynasore (Dyn) and 200 μM chloroquine (CQ) at 37° C. for 1 h. Treated cells were then stimulated with and without 100 pM TGF-β1. After 30 min at 37° C., cells were fixed and analyzed by indirect immunofluorescent staining using antibody to TβR-I (panels 1-10) and SARA (panels 11-20), DAPI (nuclear) staining was also performed (panels 21-30). Merged staining is also shown (panels 31-40). Insets indicate the co-localization and accumulation of SARA and TβR-I at the plasma membrane.
TGF-β stimulates Smad2 phosphorylation by inducing association of TβR-I and SARA^6,7 (which serves as an anchor for Smad2), binding of Smad2 to SARA, and subsequent phosphorylation of Smad2 by TβR-I in the TβR-1-SARA-Smad2 complex. If clathrin-dependent endocytosis inhibitors enhance TGF-β-induced signaling (TGF-β-stimulated Smad2 phosphorylation) by increasing accumulation of TβR-I/TβR-II complexes at the coated pits, they should promote co-localization and accumulation of TβR-I and SARA at the plasma membrane. To test this, Mv1Lu cells were stimulated with 100 pM TGF-β1. After 30 min at 37° C., […] analyzed by immunofluorescent microscopy using antibodies to TβR-I and SARA. […] This is consistent with the previous report that TGF-β enhances TGF-β receptor internalization^16.

[3] = tested on: nuclear localization of P-Smad2 in Mv1Lu cells; experiment: Nuclear localization of P-Smad2, indirect immunofluorescent staining; details: β-CD 10 mg/ml 1 h, then TGF-β1 (10 pM) for 30 min
Procedure: (A-I, K) Cells were pretreated with 10 mg/ml β-CD (A, K), 20 LM MDC (B), 40 μM monensin (C), 20 μM TFP (D) and 0.45 M sucrose (K) or several concentrations (as indicated) of β-CD (E), TFP (F), monensin (G), chloroquine (H), dynasore (I), at 37° C. for 1 h. The cells were then stimulated with vehicle only or […] TGF-β1 (A to I) or several concentrations (as indicated) of TGF-β1 (K). After several time periods, as indicated, at 37° C., cell lysates were analysed by 7.5% SDS PAGE followed by Western blot analysis using antibodies to P-Smad2 and Smad2 and chemiluminescence development (a or top) and quantitation by densitometry (b or bottom). The relative level of P-Smad2 was expressed as arbitrary units (A.U.) (A, B, C, D, K) (b). […]
If TGF-β-induced signaling occurs in endosomes, as reported previously^6-15, inhibitors of clathrin-dependent endocytosis would be expected to attenuate TGF-β-stimulated signaling such as Smad2 phosphorylation and nuclear colocalization^4,5. […] After several time periods, the relative levels of P-Smad2 in treated and stimulated cells were analyzed by quantitative Western blot analysis using antibodies to P-Smad2 and Smad2. […] After 30 min at 37° C., cell lysates were subjected to Western blot analysis using antibodies to P-Smad2 and Smad2 followed by quantitation with densitometry. […]

Compound: CN(C)c1cccc2c(S(=O)(=O)NCCCCCN)cccc12 [MDC, monodansylcadaverine]
- time dependence of the effect on TGF-β1-stimulated Smad2 phosphorylation ([1]; 10 mg/ml β-CD): enhanced TGF-β1-stimulated Smad2 phosphorylation in a time-dependent manner

Compound: CN(C)CCCN1c2ccccc2Sc2ccc(C(F)(F)F)cc21 [TFP, triflupromazine]
- co-localization and accumulation of TβR-I and SARA at the plasma membrane, co-treatment with TGF-β1 [2]: promoted co-localization and accumulation of TβR-I and SARA at the plasma membrane
- time dependence of the effect on TGF-β1-stimulated Smad2 phosphorylation ([1]; 10 mg/ml β-CD): enhanced TGF-β1-stimulated Smad2 phosphorylation in a time-dependent manner
- concentration dependence of the effect on TGF-β1-stimulated Smad2 phosphorylation [1]: enhanced TGF-β1-stimulated Smad2 phosphorylation in a concentration-dependent manner

Compound: CCN(CC)CCCC(C)Nc1ccnc2cc(Cl)ccc12 (stereo not drawn) [chloroquine]
- co-localization and accumulation of TβR-I and SARA at the plasma membrane, co-treatment with TGF-β1 [2]: promoted co-localization and accumulation of TβR-I and SARA at the plasma membrane
- concentration dependence of the effect on TGF-β1-stimulated Smad2 phosphorylation [1]: enhanced TGF-β1-stimulated Smad2 phosphorylation in a concentration-dependent manner

Compound: OC[C@H]1O[C@@](CO)(O[C@H]2O[C@H](CO)[C@@H](O)[C@H](O)[C@H]2O)[C@@H](O)[C@@H]1O [hyperosmotic sucrose, sucrose]
- attenuation of Smad2 phosphorylation ([1]; hyperosmotic sucrose 0.45 M, cells stimulated with 100 pM TGF-β1): ~60%
- effect on TGF-β1-stimulated Smad2 phosphorylation ([1]; hyperosmotic sucrose 0.45 M, various concentrations of TGF-β1): inhibited TGF-β1-stimulated Smad2 phosphorylation

Compound: CC[C@@]1([C@@H]2O[C@@H]([C@H]3O[C@@](O)(CO)[C@H](C)C[C@@H]3C)C[C@@H]2C)CC[C@H]([C@]2(C)CC[C@]3(C[C@H](O)[C@@H](C)[C@@H]([C@@H](C)[C@@H](OC)[C@H](C)C(=O)O)O3)O2)O1 [monensin]
- time dependence of the effect on TGF-β1-stimulated Smad2 phosphorylation ([1]; 10 mg/ml β-CD): enhanced TGF-β1-stimulated Smad2 phosphorylation in a time-dependent manner
- concentration dependence of the effect on TGF-β1-stimulated Smad2 phosphorylation [1]: enhanced TGF-β1-stimulated Smad2 phosphorylation in a concentration-dependent manner

Compound: methyl-β-cyclodextrin [β-CD]
- nuclear localization of P-Smad2 [3]: β-CD and TGF-β1 together promoted nuclear localization of P-Smad2
- co-localization and accumulation of TβR-I and SARA at the plasma membrane, co-treatment with TGF-β1 [2]: promoted co-localization and accumulation of TβR-I and SARA at the plasma membrane
- time dependence of the effect on TGF-β1-stimulated Smad2 phosphorylation ([1]; 10 mg/ml β-CD): enhanced TGF-β1-stimulated Smad2 phosphorylation in a time-dependent manner
- enhancement of TGF-β1-stimulated Smad2 phosphorylation compared with the control (treatment without β-CD) ([1]; 10 mg/ml β-CD, all concentrations of TGF-β1): 2-4 fold
- concentration dependence of the effect on TGF-β1-stimulated Smad2 phosphorylation [1]: enhanced TGF-β1-stimulated Smad2 phosphorylation in a concentration-dependent manner
